Laboratory results reported in ChEMBL document CHEMBL3885861, “Open TG-GATES”.

Species: Rattus norvegicus
Assay: Open TG-GATES - Regimen: Daily Repeat
Assay type: toxicity, organism-based, Sprague-Dawley
Set-up: regimen Daily Repeat, gender Male, age 6 weeks
Conditions: in vivo, po, route gavage; for Bas / Eos / Fbg / Hb / MCH / MCHC / MCV / Mono / Neu / Plat / RBC / Ret / WBC / APTT / Ht / Lym / PT: tissue Blood; for KIDNEY_L / KIDNEY_R / KIDNEY_TOTAL: tissue Kidney; for LIVER: tissue Liver; for ALP / ALT / AST / BUN / CRE / Ca / DBIL / GLC / IP / K / LDH / Na / PL / RALB / TBIL / TC / TP / gamma-GTP / TG: tissue Plasma
[1] = 0 mg/kg, 72 h, dose level Control, time 3 day
[2] = 0 mg/kg, […], dose level Control, time 7 day
[3] = 0 mg/kg, […], dose level Control, time 14 day
[4] = 0 mg/kg, […], dose level Control, time 28 day
[5] = 100 mg/kg, 72 h, dose level Low, time 3 day
[6] = 100 mg/kg, […], dose level Low, time 7 day
[7] = 100 mg/kg, […], dose level Low, time 14 day
[8] = 100 mg/kg, […], dose level Low, time 28 day

O=C(O)c1cn(C2CC2)c2cc(N3CCNCC3)c(F)cc2c1=O [CIPROFLOXACIN]
TERMINAL_BW [1]: 198.1 g | Bas [1]: 0% | Eos [1]: 1.2% | Fbg [1]: 228 mg/dL | Hb [1]: 13.2 g/dL | MCH [1]: 22.2 pg | MCHC [1]: 33.5% | MCV [1]: 66.2 fL | Mono [1]: 7.6% | Neu [1]: 12% | Plat [1]: 99.9 x10_4/uL | RBC [1]: 595 x10_4/ul | Ret [1]: 8.5% | WBC [1]: 105.1 x10_2/uL | KIDNEY_L [1]: 0.9 g | KIDNEY_R [1]: 0.9 g | KIDNEY_TOTAL [1]: 1.8 g | LIVER [1]: 9.9 g | ALP [1]: 993.2 IU/L | ALT [1]: 38.8 IU/L | AST [1]: 66 IU/L | BUN [1]: 17.2 mg/dL | CRE [1]: 0.5 mg/dL | Ca [1]: 11.4 mg/dL | DBIL [1]: 0.002 mg/dL | GLC [1]: 182 mg/dL | IP [1]: 7.9 mg/dL | K [1]: 5.1 meq/L | LDH [1]: 88.4 IU/L | Na [1]: 139.4 meq/L | PL [1]: 157 mg/dL | RALB [1]: 4 g/dL | TBIL [1]: 0.3 mg/dL | TC [1]: 84 mg/dL | TP [1]: 5.9 g/dL | gamma-GTP [1]: 1.8 IU/L | TERMINAL_BW [2]: 237.8 g | TERMINAL_BW [3]: 285 g | TERMINAL_BW [4]: 358.5 g | APTT [2]: 16.9 s | Bas [2]: 0% | Eos [2]: 0.8% | Fbg [2]: 230.2 mg/dL | Hb [2]: 12.6 g/dL | Ht [2]: 39.6% | Lym [2]: 82.2% | MCH [2]: 20.8 pg | MCHC [2]: 31.8% | MCV [2]: 65.5 fL | Mono [2]: 7% | Neu [2]: 10% | PT [2]: 11.9 s | Plat [2]: 101.9 x10_4/uL | RBC [2]: 605.2 x10_4/ul | Ret [2]: 6.9% | WBC [2]: 121.2 x10_2/uL | APTT [3]: 16.4 s | Bas [3]: 0% | Eos [3]: 1% | Fbg [3]: 250.2 mg/dL | Hb [3]: 14 g/dL | Ht [3]: 42.3% | MCH [3]: 21 pg | MCHC [3]: 33.1% | MCV [3]: 63.3 fL | Mono [3]: 4.4% | Neu [3]: 11% | PT [3]: 9.8 s | Plat [3]: 111.2 x10_4/uL | RBC [3]: 669.4 x10_4/ul | Ret [3]: 5.7% | WBC [3]: 131.2 x10_2/uL | APTT [4]: 17.2 s | Bas [4]: 0% | Eos [4]: 1% | Fbg [4]: 235.2 mg/dL | Hb [4]: 14.8 g/dL | Ht [4]: 44% | MCH [4]: 19.4 pg | MCHC [4]: 33.6% | MCV [4]: 57.8 fL | Mono [4]: 3.4% | Neu [4]: 11% | PT [4]: 11.3 s | Plat [4]: 107.5 x10_4/uL | RBC [4]: 762.2 x10_4/ul | Ret [4]: 2.8% | WBC [4]: 132.8 x10_2/uL | KIDNEY_L [2]: 1.1 g | KIDNEY_R [2]: 1.1 g | KIDNEY_TOTAL [2]: 2.1 g | KIDNEY_L [3]: 1.2 g | KIDNEY_R [3]: 1.2 g | KIDNEY_TOTAL [3]: 2.4 g | KIDNEY_L [4]: 1.3 g | KIDNEY_R [4]: 1.3 g | KIDNEY_TOTAL [4]: 2.5 g | LIVER [2]: 11.7 g | LIVER [3]: 13.3 g | ALP [2]: 938.8 IU/L | ALT [2]: 31.6 IU/L | AST [2]: 61.8 IU/L | BUN [2]: 19.6 mg/dL | CRE [2]: 0.5 mg/dL | Ca [2]: 11.3 mg/dL | DBIL [2]: 0.01 mg/dL | GLC [2]: 186.8 mg/dL | IP [2]: 8.6 mg/dL | K [2]: 5 meq/L | LDH [2]: 67 IU/L | Na [2]: 140.6 meq/L | PL [2]: 158.4 mg/dL | RALB [2]: 3.9 g/dL | TBIL [2]: 0.3 mg/dL | TC [2]: 90.2 mg/dL | TG [2]: 93.6 mg/dL | TP [2]: 5.7 g/dL | gamma-GTP [2]: 1.2 IU/L | ALP [3]: 844.4 IU/L | ALT [3]: 31.4 IU/L | AST [3]: 58.4 IU/L | BUN [3]: 18.8 mg/dL | CRE [3]: 0.6 mg/dL | DBIL [3]: 0.006 mg/dL | GLC [3]: 185.6 mg/dL | IP [3]: 7.9 mg/dL | K [3]: 4.7 meq/L | LDH [3]: 80.6 IU/L | Na [3]: 138.8 meq/L | PL [3]: 172.8 mg/dL | RALB [3]: 4.1 g/dL | TBIL [3]: 0.2 mg/dL | TC [3]: 82.2 mg/dL | TG [3]: 150.6 mg/dL | TP [3]: 6.3 g/dL | gamma-GTP [3]: 1.2 IU/L | ALP [4]: 566.6 IU/L | ALT [4]: 28.8 IU/L | AST [4]: 57.6 IU/L | BUN [4]: 18.8 mg/dL | CRE [4]: 0.4 mg/dL | Ca [4]: 10.7 mg/dL | DBIL [4]: 0.048 mg/dL | GLC [4]: 195.6 mg/dL | IP [4]: 7 mg/dL | K [4]: 4.3 meq/L | LDH [4]: 94.4 IU/L | Na [4]: 140.2 meq/L | PL [4]: 150.6 mg/dL | RALB [4]: 4.1 g/dL | TBIL [4]: 0.3 mg/dL | TC [4]: 75.4 mg/dL | TG [4]: 126.4 mg/dL | TP [4]: 6.6 g/dL | gamma-GTP [4]: 1.4 IU/L | TERMINAL_BW [5]: 197.9 g | APTT [5]: 16.8 s | Bas [5]: 0% | Eos [5]: 1% | Fbg [5]: 236.3 mg/dL | Hb [5]: 13.2 g/dL | Ht [5]: 39.6% | MCV [5]: 63.9 fL | Mono [5]: 6.2% | Neu [5]: 13% | Plat [5]: 90 x10_4/uL | RBC [5]: 621.4 x10_4/ul | Ret [5]: 6.4% | WBC [5]: 94.6 x10_2/uL | KIDNEY_L [5]: 0.9 g | KIDNEY_R [5]: 0.9 g | KIDNEY_TOTAL [5]: 1.8 g | LIVER [5]: 8.9 g | ALP [5]: 806.8 IU/L | ALT [5]: 44.4 IU/L | AST [5]: 64 IU/L | CRE [5]: 0.5 mg/dL | DBIL [5]: 0.012 mg/dL | GLC [5]: 182 mg/dL | IP [5]: 8.4 mg/dL | K [5]: 5.3 meq/L | LDH [5]: 83.2 IU/L | Na [5]: 139 meq/L | PL [5]: 140.6 mg/dL | RALB [5]: 3.8 g/dL | TBIL [5]: 0.3 mg/dL | TC [5]: 78.6 mg/dL | TG [5]: 76.6 mg/dL | TP [5]: 5.6 g/dL | gamma-GTP [5]: 1.6 IU/L | TERMINAL_BW [6]: 227.7 g | TERMINAL_BW [7]: 280.3 g | TERMINAL_BW [8]: 387.5 g | Bas [6]: 0% | Eos [6]: 0.8% | Fbg [6]: 221.6 mg/dL | Hb [6]: 12.9 g/dL | Ht [6]: 38.6% | Lym [6]: 80% | MCH [6]: 21.2 pg | MCV [6]: 63.8 fL | Mono [6]: 5.8% | Neu [6]: 13.8% | Plat [6]: 94 x10_4/uL | RBC [6]: 605.6 x10_4/ul | Ret [6]: 6.4% | WBC [6]: 126.8 x10_2/uL | APTT [7]: 16.3 s | Bas [7]: 0% | Eos [7]: 0.8% | Fbg [7]: 243.6 mg/dL | Hb [7]: 14 g/dL | Ht [7]: 41.8% | Lym [7]: 85.8% | MCHC [7]: 33.4% | MCV [7]: 61.8 fL | Mono [7]: 5.4% | Neu [7]: 8.2% | PT [7]: 10.2 s | Plat [7]: 102.2 x10_4/uL | RBC [7]: 678.2 x10_4/ul | Ret [7]: 6.3% | WBC [7]: 155.4 x10_2/uL | APTT [8]: 17.3 s | Bas [8]: 0% | Eos [8]: 1% | Fbg [8]: 233.2 mg/dL | Hb [8]: 14.7 g/dL | Ht [8]: 44.2% | Lym [8]: 85.2% | MCH [8]: 19.8 pg | MCHC [8]: 33.4% | MCV [8]: 59.3 fL | Mono [8]: 4.4% | Neu [8]: 9.4% | PT [8]: 11.4 s | Plat [8]: 105.1 x10_4/uL | RBC [8]: 746.2 x10_4/ul | Ret [8]: 3% | WBC [8]: 131.4 x10_2/uL | KIDNEY_L [6]: 1 g | KIDNEY_R [6]: 1 g | KIDNEY_TOTAL [6]: 2.1 g | KIDNEY_L [7]: 1.1 g | KIDNEY_R [7]: 1.1 g | KIDNEY_TOTAL [7]: 2.3 g | KIDNEY_L [8]: 1.4 g | KIDNEY_R [8]: 1.4 g | KIDNEY_TOTAL [8]: 2.8 g | LIVER [6]: 10.7 g | LIVER [8]: 15.3 g | ALP [6]: 932.4 IU/L | ALT [6]: 37.2 IU/L | AST [6]: 65.8 IU/L | BUN [6]: 18.2 mg/dL | CRE [6]: 0.5 mg/dL | Ca [6]: 11.4 mg/dL | DBIL [6]: 0 mg/dL | GLC [6]: 184 mg/dL | IP [6]: 8.4 mg/dL | K [6]: 4.9 meq/L | LDH [6]: 56 IU/L | Na [6]: 139.8 meq/L | PL [6]: 149.8 mg/dL | RALB [6]: 3.9 g/dL | TBIL [6]: 0.3 mg/dL | TG [6]: 74.8 mg/dL | TP [6]: 5.8 g/dL | gamma-GTP [6]: 1.6 IU/L | ALP [7]: 887.8 IU/L | ALT [7]: 33 IU/L | AST [7]: 66.4 IU/L | BUN [7]: 21.2 mg/dL | CRE [7]: 0.5 mg/dL | Ca [7]: 10.9 mg/dL | DBIL [7]: 0.022 mg/dL | GLC [7]: 195.6 mg/dL | IP [7]: 8.4 mg/dL | K [7]: 4.9 meq/L | LDH [7]: 88 IU/L | Na [7]: 139.2 meq/L | PL [7]: 175 mg/dL | RALB [7]: 4 g/dL | TBIL [7]: 0.3 mg/dL | TC [7]: 89 mg/dL | TG [7]: 128 mg/dL | TP [7]: 6.1 g/dL | gamma-GTP [7]: 2.2 IU/L | ALP [8]: 630 IU/L | ALT [8]: 29 IU/L | AST [8]: 54.2 IU/L | BUN [8]: 17.8 mg/dL | CRE [8]: 0.4 mg/dL | Ca [8]: 11 mg/dL | DBIL [8]: 0.024 mg/dL | GLC [8]: 185.4 mg/dL | IP [8]: 7.5 mg/dL | K [8]: 4.6 meq/L | LDH [8]: 75.6 IU/L | Na [8]: 140 meq/L | PL [8]: 141.6 mg/dL | RALB [8]: 4 g/dL | TBIL [8]: 0.3 mg/dL | TC [8]: 72.8 mg/dL | TG [8]: 108.8 mg/dL | TP [8]: 6.4 g/dL | gamma-GTP [8]: 1.4 IU/L | TERMINAL_BW (300 mg/kg, 72 h, dose level Middle, time 3 day): 198.3 g
